Consider four compounds from USRE30241E, “Esters of 3-(hydroxy or hydroxymethyl)-4-hydroxyphenyl aminomethyl ketones” (Sterling Drug Inc., priority 1970, dated 1980).

Where a name gives a salt, the structure may show the parent alone. Read-outs that look alike come from different tables or passages of the source.

Assay [1] has as its system carbachol- or histamine-induced bronchoconstriction. The experiment in a line: Bronchodilator Test Method I, anesthetized dog, intravenous activity. It is filed as in vivo. The conditions noted are these: Canis lupus familiaris, read-out: Bronchodilatation; for inhibition in vivo at 0.0012 mg/kg: 1.2 mcg/kg i.v.; for inhibition in vivo at 0.006 mg/kg: 6.0 mcg/kg i.v.; for inhibition in vivo at 0.008 mg/kg: 8 mcg/kg i.v.; for inhibition in vivo at 0.032 mg/kg: 32 mcg/kg i.v.; for inhibition in vivo at 0.128 mg/kg: 128 mcg/kg i.v.; for inhibition in vivo at 0.152 mg/kg: 152 mcg/kg i.v.; for inhibition in vivo at 0.304 mg/kg: 304 mcg/kg i.v. How it is done:
Bronchodilator activity was tested in anesthetized dogs (Test Method I) and in vitro on the perfused guinea pig lung (Test Method II), using the following pharmacological test procedures
(§1) Male and female dogs weighing 9-18 kg. each were anesthetized with pentobarbital sodium (30 mg./kg. i.v.). Each animal, with thorax opened at the midsternum, was maintained under artificial ventilation using a constant volume pump (250 ml./stroke; 10 to 12 strokes per minute) attached to the tracheal cannula. The flow of air was controlled by a glass or plastic valve which closed and opened respectively on inflow and outflow of the air to and from the tracheal cannula. Bronchoconstriction and/or bronchodilatation were measured from changes in the basal airway pressure reflected by a transducer attached to the sidearm of the cannula relayed to a polygraph.
Control bronchoconstrictions were induced by intravenous injections of carbachol (choline chloride carbamate) in doses ranging from 4 to 6 micrograms per kilogram or histamine diphosphate in doses ranging from 35 to 45 micrograms per kilogram.
Solutions of the test compounds were prepared in distilled water or in saline (for infusion). […] These solutions were then tested for bronchodilator activity in three ways, viz. (1) by mixing a graded dose of test compound with the constant does of carbachol or histamine in a syringe and injecting the mixture into the femoral vein of the dog, (2) by producing the bronchoconstriction first and injecting the test compound at the time of maximum constriction, and (3) by injecting the test compound first followed by carbachol or histamine in 1-10 minutes. Injections were repeated at 20-30 minutes. Bronchodilator values were obtained by measuring the areas under the response polygraph tracings (the first 5 munite period) of carbachol or histamine controls and of the experimentals using a planimeter. Decrease in the area thus measured was expressed as a percent bronchodilatation in reference to the area of control carbachol or histamine constriction. The mean bronchodilatations (the reductions in constrictions) were plotted against the doses administered and the mean effective dose (ED50) was estimated in micrograms/kilogram from the does-response curves. Blood pressure recording was taken from the femoral artery using an arterial transducer relayed to a polygraph.

For assay [2] the test system is unchanged. The experiment in a line: Bronchodilator Test Method I, anesthetized dog, intraduodenal activity. The conditions noted are these: Canis lupus familiaris, read-out: Bronchodilation; for inhibition in vivo at 0.038 mg/kg: 38 mcg/kg (salt) intraduodenal; for inhibition in vivo at 0.45 mg/kg: 450 mcg/kg (salt) intraduodenal; for inhibition in vivo at 0.032 mg/kg: 32 mcg/kg (salt) intraduodenal; for inhibition in vivo at 0.128 mg/kg: 128 mcg/kg (salt) intraduodenal. The assay is classed as in vivo. How it is done:
as §1
Control bronchoconstrictions were induced by intravenous injections of carbachol (choline chloride carbamate) in doses ranging from 4 to 6 micrograms per kilogram or histamine diphosphate in doses ranging from 35 to 45 micrograms per kilogram. In the majority of test animals, the above doses of constrictor agents produced a 100-200 percent increase in the normal airway pressure or amplitude.
Injections were repeated at 20-30 minutes.
In intraduodenal studies, in the dog prepared for bronchodilation measurements, the duodenal segment of the small intestine was made easily accessible through a small mid-line incision in the abdomen. The test solution was injected into the duodenum using a fine needle. Commencing 5 minutes after medication, the degree and duration of bronchodilation were tested by injecting a control dose of carbachol or histamine at intervals of 30-60 minutes until the recovery or near-recovery was apparent. In some dogs showing an early recovery, a reference drug was also tested in the same dog 1.5-2 hours after the first medicine.

With `CC(=O)Oc1ccc(C(O)CNC(C)(C)C)cc1OC(=O)c1ccc(C)cc1` (stereo not drawn) [Example 146, 3-(p-toluyloxy)-4-acetoxy-alpha-(tert-butylaminomethyl)benzyl alcohol methanesulfonate], the inhibition in vivo at 0.0012 mg/kg came to 31% in assay [1] (5 min, 5 min); 38% in assay [1] (0.5 h, 30 min); 44% in assay [1] (1 h, 60 min); 20% in assay [1] (3 h, 180 min); 20% in assay [1] (4 h, 240 min). The inhibition in vivo at 0.006 mg/kg in assay [1] (5 min, 5 min) was 66%; in assay [1] (0.5 h, 30 min), 57%; in assay [1] (1 h, 60 min), 63%. The inhibition in vivo at 0.038 mg/kg turned out to be 60% in assay [2] (5 min, 5 min); 39% in assay [2] (0.5 h, 30 min); 39% in assay [2] (1 h, 60 min); 26% in assay [2] (2 h, 120 min); 33% in assay [2] (3 h, 180 min); 24% in assay [2] (4 h, 240 min). In addition, the inhibition in vivo at 0.038 mg/kg in assay [2] (5 h, 300 min) came out at 13%.
On to `Cc1ccc(C(=O)Oc2ccc(C(O)CN)cc2OC(=O)c2ccc(C)cc2)cc1` (stereo not drawn) [Example 127, 3,4-bis(p-toluyloxy)-alpha-(aminomethyl)benzyl alcohol methanesulfonate], for which the inhibition in vivo at 0.45 mg/kg in assay [2] (5 min, 5 min) was determined as 16%; in assay [2] (10 min, 10 min), 16%; in assay [2] (1 h, 60 min), 0%; in assay [2] ([…], after 90 min) it was 0%.
Consider `CC(=O)OCc1cc(C(O)CNC(C)(C)C)ccc1OC(=O)C12CC3CC(CC(C3)C1)C2` (stereo not drawn) [Example 152, 3-(acetoxymethyl)-4-(1-adamantanecarbonyloxy)-alpha-(tert-butylaminomethyl)benzyl alcohol methanesulfonate], for which the inhibition in vivo at 0.008 mg/kg in assay [1] (5 min, 5 min) is 44%; in assay [1] (0.5 h, 30 min) it was 39%; in assay [1] (1 h, 60 min) it was 50%; in assay [1] (2 h, 120 min) it was 33%; in assay [1] (3 h, 180 min), 39%; in assay [1] (4 h, 240 min), 39%. Besides, the inhibition in vivo at 0.008 mg/kg in assay [1] (4.5 h, 270 min) was 0%. For the same compound, the inhibition in vivo at 0.032 mg/kg in assay [1] (5 min, 5 min) was 77%; in assay [1] (0.5 h, 30 min) it was 78%; in assay [1] (1 h, 60 min) it was 75%; in assay [1] (2 h, 120 min), 70%; in assay [1] (3 h, 180 min), 63%; in assay [1] (4 h, 240 min), 52%. The inhibition in vivo at 0.032 mg/kg in assay [1] (4.5 h, 270 min) was 45%; in assay [2] (5 min, 5 min), 6%; in assay [2] (0.5 h, 30 min) it was 6%; in assay [2] (1 h, 60 min), 17%; in assay [2] (2 h, 120 min), 48%; in assay [2] (3 h, 180 min), 45%. Further, the inhibition in vivo at 0.032 mg/kg came to 45% in assay [2] (4 h, 240 min) and 21% in assay [2] (5 h, 300 min). Further, the inhibition in vivo at 0.128 mg/kg in assay [1] (5 min, 5 min) is 97%; in assay [1] (0.5 h, 30 min), 92%; in assay [1] (1 h, 60 min), 93%; in assay [1] (2 h, 120 min), 87%; in assay [1] (3 h, 180 min), 89%; in assay [1] (4 h, 240 min), 88%. In addition, the inhibition in vivo at 0.128 mg/kg came out at 82% in assay [1] (4.5 h, 270 min); 6% in assay [2] (5 min, 5 min); 43% in assay [2] (0.5 h, 30 min); 59% in assay [2] (1 h, 60 min); 51% in assay [2] (2 h, 120 min); 65% in assay [2] (3 h, 180 min). In addition, the inhibition in vivo at 0.128 mg/kg stood at 59% in assay [2] (4 h, 240 min) and 54% in assay [2] (5 h, 300 min).
For the compound `CCC(NC(C)C)C(O)c1ccc(OC(=O)c2ccc(C)cc2)c(OC(=O)c2ccc(C)cc2)c1` (stereo not drawn) [Example 132, 3,4-bis(p-toluyloxy)-alpha-[1-(isopropylamino)propyl]benzyl alcohol hydrochloride], the inhibition in vivo at 0.152 mg/kg in assay [1] (5 min, 5 min) amounted to 67%; in assay [1] (0.5 h, 30 min), 75%; in assay [1] (1 h, 60 min), 71%; in assay [1] (2 h, 120 min) it was 52%; in assay [1] (3 h, 180 min), 43%; in assay [1] (4 h, 240 min), 0%. Also, the inhibition in vivo at 0.152 mg/kg in assay [1] (5 h, 300 min) is 0%. For the same compound, the inhibition in vivo at 0.304 mg/kg in assay [1] (5 min, 5 min) was 100%; in assay [1] (0.5 h, 30 min) it was 67%; in assay [1] (5 h, 300 min), 0%.
